US20250002463A1, “NEW SALT FORMS OF AMILORIDE AND ITS DERIVATIVES FOR PHARMACEUTICAL USE” (PSOMRI Holding AB, priority 2021, published 2025)

Columns and labels:
[1] = Polymorphism: solid forms found in salt screen by HT-XRPD; type: physicochemical; settings: DME, THF; for Polymorphism: Example 1 salt screen in MeOH; for salt polymorphs found from all three crystallization solvents: Example 2, MeOH
Procedure: (§1) The precipitated solids were analyzed by high throughput X-ray powder diffractometry (HT XRPD). Liquid phases (both solutions and mother liquors) were evaporated at ambient conditions and the residual solids were analyzed by HT XRPD.
The salt screen experiments were carried out in methanol (MeOH), 1,2-dimethoxyethane (DME) and tetrahydrofuran (THF).

[2] = Physical stability under Accelerated Aging Conditions (AAC, 40° C./75% RH, 2 days), HT-XRPD; settings: for Physically stable after AAC: Example 1; for Physically stable after AAC / physical stability upon exposure to AAC: 40° C./75% RH for 2 days; for Physical Stability: AAC 40° C./75% RH, 2 days, re-analyzed by HT-XRPD; for physical stability upon exposure to AAC: Example 2
Procedure: The solids were separated from the liquid phases by centrifugation, dried overnight under vacuum at 50° C. and analyzed by HT-XRPD. Solvents from the remaining mother liquors and solutions were evaporated under ambient conditions (evaporative crystallization experiments) and the residual solids were analyzed by HT-XRPD.
Slurries of the amorphous solids (GEN9 and GEN16, respectively) were prepared in 15 solvents at room temperature. The suspensions were subjected to a temperature profile, which comprised of three heating and cooling cycles. At the end of the temperature profile, the solids were isolated by centrifugation and dried at ambient conditions and under vacuum at 50° C. Upon completion of all crystallization experiments, all solids were analyzed by HT-XRPD.

[3] = Crystallinity of salt forms by HT-XRPD; type: physicochemical; settings: salt screen solid forms
Procedure: as §1
XRPD patterns were obtained using the Ardena T2 high-throughput XRPD set-up. The plates were mounted on a Bruker General Area Detector Diffraction System (GADDS) equipped with a VÅNTEC-500 gas area detector corrected for intensity and geometric variations. The calibration of the measurement accuracy (peaks position) was performed using NIST SRM1976 standard (Corundum).
No background subtraction or curve smoothing was applied to the XRPD patterns.

Compound: CC(=O)O.NC(=NC(=O)c1nc(Cl)c(N)nc1N)NCc1ccccc1 [ACA2]
- Polymorphism [1]: Yes
- Physically stable after AAC [2]: physically stable and Yes

Compound: NC(=NC(=O)c1nc(Cl)c(N)nc1N)NCc1ccccc1.O=C(O)c1ccccc1 [BNZ3]
- Polymorphism [1]: Yes
- Physically stable after AAC [2]: physically stable and Yes

Compound: Cl.N/C(=N\C(=O)c1nc(Cl)c(N)nc1N)NCc1ccccc1 [Benzamil HCl SM1, reference compound]
- Polymorphism [1]: Yes
- Physically stable after AAC [2]: No

Compound: NC(=NC(=O)c1nc(Cl)c(N)nc1N)NCc1ccccc1.O=S(=O)(O)c1cccc2c(S(=O)(=O)O)cccc12 [NDS1]
- salt polymorphs found from all three crystallization solvents [1]: only one salt polymorph
- Crystallinity [3]: Good
- Physical Stability [2]: Stable
- physical stability upon exposure to AAC [2]: physically stable

Compound: NC(=NC(=O)c1nc(Cl)c(N)nc1N)NCc1ccccc1.O=C(O)c1cccnc1 [NIC1]
- salt polymorphs found from all three crystallization solvents [1]: only one salt polymorph
- Crystallinity [3]: Good
- Physical Stability [2]: Stable
- physical stability upon exposure to AAC [2]: physically stable

Compound: NC(=NC(=O)c1nc(Cl)c(N)nc1N)NCc1ccccc1.O=S(=O)(O)c1ccc2ccccc2c1 [NSA2]
- Crystallinity [3]: Moderate
- Physical Stability [2]: Stable
- physical stability upon exposure to AAC [2]: physically stable

Compound: NC(=NCc1ccccc1)NC(=O)c1nc(Cl)c(N)nc1N.O=S(=O)(O)c1ccc2ccccc2c1 [NSA4]
- Crystallinity [3]: Poor
- Physical Stability [2]: Stable
- physical stability upon exposure to AAC [2]: physically stable

Compound: N=C(NCc1ccccc1)NC(=O)c1nc(Cl)c(N)nc1N.O=C(O)c1cc(=O)[nH]c(=O)[nH]1 [ORO1]
- Crystallinity [3]: Good
- Physical Stability [2]: Stable
- physical stability upon exposure to AAC [2]: physically stable

Compound: NC(=NCc1ccccc1)NC(=O)c1nc(Cl)c(N)nc1N.O=C(O)c1cc(=O)[nH]c(=O)[nH]1 [ORO2]
- Crystallinity [3]: Good - poorly
- Physical Stability [2]: Stable
- physical stability upon exposure to AAC [2]: physically stable

Compound: NC(=NC(=O)c1nc(Cl)c(N)nc1N)NCc1ccccc1.O=C(O)c1cc(=O)[nH]c(=O)[nH]1 [ORO3]
- Crystallinity [3]: Poor
- Physical Stability [2]: Poor-

Compound: NC(=NC(=O)c1nc(Cl)c(N)nc1N)NCc1ccccc1.O=C(O)c1cc2ccccc2c(Cc2c(O)c(C(=O)O)cc3ccccc23)c1O [PAM1]
- Crystallinity [3]: Obtained as mixture
- Physical Stability [2]: Stable
- physical stability upon exposure to AAC [2]: physically stable

Compound: NC(=NC(=O)c1nc(Cl)c(N)nc1N)NCc1ccccc1.O=C(O)c1cc2ccccc2c(Cc2c(O)c(C(=O)O)cc3ccccc23)c1O [PAM2]
- Crystallinity [3]: Poor
- Physical Stability [2]: Stable
- physical stability upon exposure to AAC [2]: physically stable

Compound: CC(C)(C)C(=O)O.NC(=NC(=O)c1nc(Cl)c(N)nc1N)NCc1ccccc1 [PIV1]
- salt polymorphs found from all three crystallization solvents [1]: only one salt polymorph
- Crystallinity [3]: Good
- Physical Stability [2]: Stable
- physical stability upon exposure to AAC [2]: physically stable

Compound: CCC(=O)O.NC(=NC(=O)c1nc(Cl)c(N)nc1N)NCc1ccccc1 [PRO1]
- Crystallinity [3]: Good
- Physical Stability [2]: Unstable

Compound: CCC(=O)O.NC(=NC(=O)c1nc(Cl)c(N)nc1N)NCc1ccccc1 [PRO3]
- Crystallinity [3]: Moderate
- Physical Stability [2]: Unstable

Compound: CCC(=O)O.NC(=NC(=O)c1nc(Cl)c(N)nc1N)NCc1ccccc1 [PRO4]
- Crystallinity [3]: Obtained as mixture
- Physical Stability [2]: Unstable

Compound: NC(=NC(=O)c1nc(Cl)c(N)nc1N)NCc1ccccc1.O=C(O)c1ccccc1O [SAL1]
- Crystallinity [3]: Good
- Physical Stability [2]: Stable
- physical stability upon exposure to AAC [2]: physically stable

Compound: NC(=NC(=O)c1nc(Cl)c(N)nc1N)NCc1ccccc1.O=C(O)c1ccccc1O [SAL3]
- Crystallinity [3]: Moderate
- Physical Stability [2]: Unstable-

Compound: CCCCCCCCCCCCCCCCCC(=O)O.NC(=NC(=O)c1nc(Cl)c(N)nc1N)NCc1ccccc1 [STE1]
- Crystallinity [3]: Obtained as mixture
- Physical Stability [2]: Stable
- physical stability upon exposure to AAC [2]: physically stable

Compound: CCCCCCCCCCCCCCCCCC(=O)O.NC(=NC(=O)c1nc(Cl)c(N)nc1N)NCc1ccccc1 [STE2]
- Crystallinity [3]: Poor
- Physical Stability [2]: Stable
- physical stability upon exposure to AAC [2]: physically stable

Compound: NC(=NC(=O)c1nc(Cl)c(N)nc1N)NCc1ccccc1.NC(=NC(=O)c1nc(Cl)c(N)nc1N)NCc1ccccc1.O=S(=O)(O)O [SUL1]
- Polymorphism [1]: Yes
- Physically stable after AAC [2]: physically stable and Yes

Compound: N=C(NCc1ccccc1)NC(=O)c1nc(Cl)c(N)nc1N.O=C(O)C(O)C(O)C(=O)O [TAR1]
- Polymorphism [1]: Unclear
- Physically stable after AAC [2]: physically stable
- Physically stable after AAC ([2]; listed as TAR1 pc): Yes

Compound: CCCCC(=O)O.NC(=NC(=O)c1nc(Cl)c(N)nc1N)NCc1ccccc1 [VAL1]
- Crystallinity [3]: Good
- Physical Stability [2]: Stable
- physical stability upon exposure to AAC [2]: physically stable

Compound: PAM3
- Crystallinity [3]: Poor
- Physical Stability [2]: Unstable
